The values below come from patent US7202258B2, “α- and β-amino acid hydroxyethylamino sulfamic acid derivatives useful as retroviral protease inhibitors” (G.D. Searle & Co., priority 1992, dated 2007).

In one data set the target is T1, HIV protease (Human immunodeficiency virus type 1 group M subtype B, UniProt P04585).
T1 construct: HIV protease is diluted in the assay buffer to a final enzyme concentration of 12.3 nanomolar, based on a molecular weight of 10,780
Nature of the data set: HIV protease enzyme assay (fluorescence, substrate 2-Ile-Nle-Phe(p-NO2)-Gln-ArgNH2). In kind it is biochemical. An excerpt:
The compounds of the present invention are effective HIV protease inhibitors. Utilizing an enzyme assay as described below, the compounds set forth in the examples herein disclosed inhibited the HIV enzyme. The preferred compounds of the present invention and their calculated IC50 (inhibiting concentration 50%, i.e., the concentration at which the inhibitor compound reduces enzyme activity by 50%) values are shown in Table 17. The enzyme method is described below. The substrate is 2-Ile-Nle-Phe(p-NO2)-Gln-ArgNH2. The positive control is MVT-101 (Miller, M. et al, Science, 246, 1149 (1989)]The assay conditions are as follows: • Assay buffer: 20 mM sodium phosphate, […] • 20% glycerol • 1 mM EDTA • 1 mM DTT • 0.1% CHAPS
The above described substrate is dissolved in DMSO, then diluted 10 fold in assay buffer. Final substrate concentration in the assay is 80 μM.
HIV protease is diluted in the assay buffer to a final enzyme concentration of 12.3 nanomolar, based on a molecular weight of 10,780.
The final concentration of DMSO is 14% and the final concentration of glycerol is 18%. The test compound is dissolved in DMSO and diluted in DMSO to 10× the test concentration; 10 μl of the enzyme preparation is added, the materials mixed and then the mixture is incubated at ambient temperature for 15 minutes. The enzyme reaction is initiated by the addition of 40 μl of substrate. The increase in fluorescence is monitored at 4 time points (0, 8, 16 and 24 minutes) at ambient temperature. Each assay is carried out in duplicate wells.

In another data set the test system is CEM cells. Nature of the data set: Intrinsic toxicity of test compound in uninfected CEM cells (MTT). Conditions: human, 7 days. In kind it is cell-based. From the text:
Methods, 20, 309–321 (1988). […] A Frozen culture c.

In another data set the test system is HIV-1. As to the kind of experiment: microbe, parasite or virus in culture. To be noted: Human immunodeficiency virus 1, CCRF-CEM, 168 h, read-out: EC50 (nm).
The mark [1] stands for this setting: Table 18, compounds of Table 1C, read-out: IC50 or % Inhibition: IC50.

SMILES strings stand for the structures. Read-outs that look alike come from different tables or passages of the source. A value given as a limit tells only on which side of the number the result lay.

Method for HIV-1: Assays were performed in 96-well tissue culture plates. CEM cells, a CD4^+ cell line, were grown in RPMI-1640 medium (Gibco) supplemented with a 10% fetal calf serum and were then treated with polybrene (2 μg/ml). An 80 μl volume of medium containing 1×10^4 cells was dispensed into each well of the tissue culture plate, no each well was added a 100 μl volume of test compound dissolved in tissue culture medium (or medium without test compound as a control) to achieve the desires final concentration and the cells were incubated at 37° C. for 1 hour. […] HIV-1 was diluted in culture medium to a concentration of 5×10^4 TCID50 per ml (TCID50=the dose of virus that infects 50% of cells in tissue culture), and a 20 μL volume of the virus sample (containing 1000 TCID50 of virus) was added to wells containing test compound and to wells containing only medium (infected control cells). Several wells received culture medium without virus (uninfected control cells). Likewise, the intrinsic toxicity of the test compound was determined by adding medium without virus to several wells containing test compound.
In experiments 2 and 4 the final concentrations of test compounds were 1, 10, 100 and 500 μg/ml. Either azidothymidine (AZT) or dideoxyinosine (ddI) was included as a positive drug control. […] DMSO was added to all control wells at an appropriate concentration.
Following the addition of virus, cells were incubated at 37° C. in a humidified, 5% CO2 atmosphere for 7 days. Test compounds could be added on days 0, 2 and 5 if desired. On day 7, post-infection, the cells in each well were resuspended and a 100 μl sample of each cell suspension was removed for assay. A 20 μL volume of a 5 mg/ml solution of 3-(4,5-dimethylthiazol-2-yl)-2,5-diphenyltetrazolium bromide (MTT) was added to each 100L cell suspension, and the cells were incubated for 4 hours at 27° C. in a 5% CO2 environment. […] To each sample was added 100 μl of 10% sodium dodecylsulfate in 0.01 N HCl to lyse the cells, and samples were incubated overnight. The absorbance at 590 nm was determined for each sample using a Molecular Devices microplate reader. Absorbance values for each set of wells is compared to assess viral control infection, uninfected control cell response as well as test compound by cytotoxicity and antiviral efficacy.

With `CC(C)CN(C[C@@H](O)[C@H](Cc1ccccc1)NC(=O)OCc1ccccc1)S(=O)(=O)N1CCCCC1` [G], the half-maximal inhibitory concentration (IC50) (commonly the midpoint of a concentration-inhibition curve) on HIV protease (setting [1]) stood at 66 nM.

For the compound `CC(C)CN(C[C@@H](O)[C@H](Cc1ccccc1)NC(=O)[C@H](CC(N)=O)NC(=O)c1ccc2ccccc2n1)S(=O)(=O)N1CCN(C)CC1` [Entry 3], the “TD50 (nm)” value in the data set on CEM cells is listed as 28,000 nM. Besides, at HIV protease, the IC50 is 3 nM. Further, the EC50 (usually the concentration needed to bring the measured effect to its halfway point) with HIV-1 amounted to 42 nM.

On to `COc1ccc(COC(=O)NC[C@@H](C)C(=O)N[C@@H](Cc2ccccc2)[C@H](O)CN(CC(C)C)S(=O)(=O)NC(C)(C)C)cc1` [Entry 5], for which the half-inhibitory concentration (IC50) at HIV protease (Table 17, read-out: IC50) is 13 nM.

As for `CC(C)(C)NS(=O)(=O)N(CC1CCCCC1)C[C@@H](O)[C@H](Cc1ccccc1)NC(=O)OCc1ccccc1` [I], the half-inhibitory concentration (IC50) on HIV protease (setting [1]) is 1700 nM.

For the compound `COC(=O)C(C)(C)NS(=O)(=O)N(CC(C)C)C[C@@H](O)[C@H](Cc1ccccc1)NC(=O)OCc1ccccc1` [J], the IC50 on HIV protease (setting [1]) was 2690 nM.

For the compound `CCCCNS(=O)(=O)N(CC(C)C)C[C@@H](O)[C@H](Cc1ccccc1)NC(=O)[C@@H](NC(=O)CN(C)C)C(C)(C)C` [Entry 1], in the data set with CEM cells, the “TD50 (nm)” value is listed as 56,000 nM. The compound further displayed an IC50 against HIV protease of 40 nM. The EC50 in the data set on HIV-1 is 167 nM.

With `CC(C)CN(C[C@@H](O)[C@H](Cc1ccccc1)NC(=O)[C@H](CC(N)=O)NC(=O)c1ccc2ccccc2n1)S(=O)(=O)NC(C)(C)C` [Entry 4], the “TD50 (nm)” value with CEM cells is 39,000 nM. Moreover, the IC50 at HIV protease came to 2 nM. In addition, in the data set on HIV-1, the concentration for a half-maximal effect (EC50) is less than 15 nM.

Consider `CCCCNS(=O)(=O)N(CC(C)C)C[C@@H](O)[C@H](Cc1ccccc1)NC(=O)[C@H](CC(N)=O)NC(=O)c1ccc2ccccc2n1` [Entry 2], for which the “TD50 (nm)” value with CEM cells was 65,000 nM. The compound further yielded a half-maximal inhibitory concentration (IC50) against HIV protease of 5 nM. Moreover, the EC50 in the data set with HIV-1 stood at 23 nM.
